Data as given in patent US20110207796A1, “ALPHA-SYNUCLEIN KINASE” (Elan Pharma International Limited, priority 2008, published 2011).
Read-outs that look alike come from different tables or passages of the source.

Experiments:
[1] = test system: endogenous kinase (synuclein phosphorylation); experiment: HEK-293 cells overexpressing synuclein with empty vector, inhibition of synuclein phosphorylation; format: cell-based, human; settings: Homo sapiens
Description: All vectors had the sequence coding for the protein of interest. Transfection was accomplished using Lipofectamine 2000 (Invitrogen, Carlsbad, Calif.) with 0.08 μg vector. Cells were washed and harvested 48 hours post-transfection. A Micro BCA (Pierce) total protein assay and total synuclein and phospho-synuclein ELISAs were performed on each plate of treated cells.

[2] = test system: synuclein phosphorylation by endogenous kinase; experiment: kinase inhibitor treatment of mouse cortical cultures (MCC), total and phospho-synuclein ELISA; format: cell-based
Description: Mouse cortical cultures from fetal (i) Swiss-Webster, (ii) C56BL/6 WT and (iii) C56BL/6 E46K-Synuclein Trangenic mice were prepared and maintained in B27/DMEM/1% Penicillin-Streptomycin at 37° C./10% CO2 for three to fourteen days and then treated with kinase inhibitors.
Cultures were exposed to inhibitors for two hours in B27/DMEM/1% Penicillin-Streptomycin. Cells were immediately washed in 100 μL of PBS plus Mg^2+ and Ca^2+, and harvested in ice-cold CEB minus EGTA plus protease inhibitors, frozen on dry ice and stored at −80° C. until processed. A Micro BCA (Pierce) total protein assay, and total synuclein and phospho-synuclein ELISAs were performed on each plate of treated cells using standard methods.

[3] = test system: synuclein phosphorylation (serine-129); experiment: inhibition of synuclein phosphorylation across the cellular paradigms (primary neuronal cultures and 293 cells); format: cell-based, mouse, rat and human; settings: Homo sapiens, HEK293; most EC50 values, all cellular paradigms; read-out: EC50 inhibition of synuclein phosphorylation, cellular paradigms
panel of 260 kinases = experiment: screen against a panel of 260 kinases at 10 uM; format: biochemical
brain p-synuclein = experiment: synuclein phosphorylation in brains of FVB mice treated with kainic acid (immunohistochemistry, ELISA); format: in vivo, mouse; settings: immunohistochemistry and ELISA
Source text: This example describes up regulation of phosphorylated α-synuclein (p-synuclein) in wildtype mice after kainic acid administration. Several articles have reported that excitotoxicity can result in an upregulation of polo-like kinases. […] Thus the kainic acid model provides better understanding the involvement of the PLK2 p-synuclein pathway in neurodegeneration and may be used in screening assays of the invention.

| SMILES | EC50 ([1]; HEK293, read-out: EC50, Endogenous Kinase (293)) [nM] | EC50 ([1]; HEK293, read-out: EC50 Based on the Percent Inhibition of Synuclein Phosphorylation, Synuclein + Vector) [nM] | EC50 ([1]; HEK293, read-out: EC50 synuclein phosphorylation, endogenous kinase) [nM] | EC50 ([2]; Mus musculus, read-out: EC50, E46K-Syn TG MCC) [nM] | EC50 ([2]; Swiss-Webster mouse cortical cultures, read-out: EC50, Swiss-Webster MCC) [nM] | EC50 ([2]; WT mouse cortical cultures, read-out: EC50, WT-MCC) [nM] | EC50 [3] [nM] | inhibition in panel of 260 kinases (panel of 260 kinases) | p-synuclein levels in brain (brain p-synuclein) |
| --- | --- | --- | --- | --- | --- | --- | --- | --- | --- |
| CC[C@@H]1C(=O)N(C)c2cnc(Nc3ccc(C(=O)NC4CCN(C)CC4)cc3OC)nc2N1C1CCCC1 [BI 2536, 4-[[(7r)-8-cyclopentyl-7-ethyl-5,6,7,8-tetrahydro-5-methyl-6-oxo-2-pteridinyl]amino]-3-methoxy-n-(1-methyl-4-piperidinyl)-benzamide] | 54 | 99 | 99 | < 100 | 92 | < 100 | ≤ 100 | very potent in inhibiting PLK2 and PLK3 |  |
| C=C(C)[C@H]1CN[C@H](C(=O)O)[C@H]1CC(=O)O [kainic acid] |  |  |  |  |  |  |  |  | Increased levels |
